# Results published in US20230029496A1, “AMINO ACID ALTERNATIVE CURING SYSTEM” (THE TEXAS A&M UNIVERSITY SYSTEM, priority 2019, published 2023).
# Several values for one entry are separate records, joined by “and”; a condition that tells them apart may be missing. Equal entries are not always repeated. Where two headings read alike, the source gives them in different places. Marks after values point to notes of the source that are not given here.
# Assays:
# [1] = system: NOS system; assay: NO-heme, total heme, nitrosylation in test beef frankfurters (Example 12)
# Method: The remaining nonmeat ingredients were added (except the antimicrobial) and chopped at 2000 rpm for one minute. Protecta (sodium acetate antimicrobial) was added and the emulsion chopped at 4000 rpm for one minute. The emulsion was evacuated and placed into a vacuum assisted stuffer where each test emulsion was stuffed and twist linked into 22 mm cellulose casings weighing 40 g each. The frankfurter links were hung on smokehouse trucks, placed into a commercial smokehouse and thermally processed to 160° F. (Table 18).
# After thermal processing and chilling (40° F.), the casings were peeled from the frankfurters and were vacuum packaged and stored under refrigerated conditions for residual nitrite and nitrosylation. […] This was done to determine if the L-arginine could the NOS system to generate sufficient NO for cure color development and residual nitrite for antioxidant and antimicrobial effect.
# [2] = system: nitric oxide synthase system
# Method: After thermal processing and chilling according to USDA-FSIS Appendix A—Thermal processing (71° C.) and B—Cooling procedures (2° C.) guidelines, the frankfurters will be vacuum packaged and stored under refrigeration (2° C.) until analyzed at 0, 14, 28 and 56 days post manufacture.
# The samples were analyzed for residual nitrite after deproteinization by sample preparation for amino acid analysis by HPLC.
# Samples were vacuum packaged and refrigerated and evaluated on Day 1, 7, 14, 28 and 56 post manufacture. Differences between treatment and control samples will be determined using Tukey's Least Significant Difference procedure at P≤0.05 level. The experiment was replicated three times.
# [3] = system: nitric oxide synthase system; details: beef; for Residual Nitrite, LSMean main effect of Temperature: L-arginine
# Method: (§1) Fresh ground meat (beef, pork or poultry) was separated in ˜0.5 Kg batches and mixed with 2% salt and 10% added water. […] Each individual batch was mixed (1 min) in a food processor, removed for temperature and pH analyses and then placed into a jerky extruder tube. Approximately 25 g of sample were extruded into 50 mL centrifuge, then capped and labeled and placed into a controlled water batch and heated to a designated internal endpoint temperature (132, 158, or 165° F.).
# (§2) Samples also contained 547 ppm sodium erythorbate, a cure accelerator (Phase I) and without sodium erythorbate (Phase II). Samples were placed into test tubes and heated in a controlled water bath to 132, 158 and 165° F. Samples were held in a 40° F. cooler for seven days then tested for residual nitrite. Residual nitrite was tested after deproteinization for amino acid analysis by HPLC. Determination of nitrite (UV/VIS Spectrophotometric Method) was used to detect any residual nitrite for best results in detecting minute amounts of nitrite. Residual nitrite levels were read in a 96 well plate reader at 540 nm.
# (§3) Both phases of the experiment were designed as a factorial (concentration level and endpoint temperature) randomized complete block design with three replications. […] Least squares means were generated and Tukey's HSD used to determine significance at P≤0.05.
# [4] = system: nitric oxide synthase system; details: pork, Phase I, with 547 ppm sodium erythorbate
# Method: as §1, §2, §3
# [5] = 1000 ppm L-arginine with 547 ppm sodium erythorbate
# [6] = 1000 ppm L-arginine, no cure accelerator
# [7] = 5000 ppm L-arginine with 547 ppm sodium erythorbate
# [8] = 5000 ppm L-arginine, no cure accelerator
compound,measurement,setting,value
N=C(N)NCCC[C@H](N)C(=O)O [L-arginine],NO-Heme,[1]; [5],23.59^ab ppm
same,Nitrosylation,[1]; [5],59.68^a %
same,Total Heme,[1]; [5],40.35^a ppm
same,NO-Heme,[1]; [6],17.79^b ppm
same,Nitrosylation,[1]; [6],43.64^a %
same,Total Heme,[1]; [6],41.71^a ppm
same,NO-Heme,[1]; [7],28.32^a ppm
same,Nitrosylation,[1]; [7],55.59^a %
same,Total Heme,[1]; [7],51.00^a ppm
same,NO-Heme,[1]; [8],27.94^a ppm
same,Nitrosylation,[1]; [8],54.26^a %
same,Total Heme,[1]; [8],52.81^a ppm
same,Cure color (nitrosylation),[1]; range over L-arginine frankfurters,43.64 to 59.68%
same,water activity (Aw),"3000 ppm L-arginine, Day 1",0.979
same,water activity (Aw),"3000 ppm L-arginine, Day 7",0.978
same,water activity (Aw),"3000 ppm L-arginine, Day 14",0.976
same,water activity (Aw),"3000 ppm L-arginine, Day 28",0.982
same,water activity (Aw),"4000 ppm L-arginine, Day 1",0.979
same,water activity (Aw),"4000 ppm L-arginine, Day 7",0.982
same,water activity (Aw),"4000 ppm L-arginine, Day 14",0.975
same,water activity (Aw),"4000 ppm L-arginine, Day 28",0.975
same,water activity (Aw),"5000 ppm L-arginine, Day 1",0.982
same,water activity (Aw),"5000 ppm L-arginine, Day 7",0.957
same,water activity (Aw),"5000 ppm L-arginine, Day 14",0.972
same,water activity (Aw),"5000 ppm L-arginine, Day 28",0.976
same,residual sodium nitrite,"[2]; 3000 ppm L-arginine, Day 1",55.90
same,residual sodium nitrite,"[2]; 3000 ppm L-arginine, Day 7",55.83
same,residual sodium nitrite,"[2]; 3000 ppm L-arginine, Day 14",62.60
same,residual sodium nitrite,"[2]; 3000 ppm L-arginine, Day 28",58.68
same,residual sodium nitrite,"[2]; 4000 ppm L-arginine, Day 1",49.92
same,residual sodium nitrite,"[2]; 4000 ppm L-arginine, Day 7",60.36
same,residual sodium nitrite,"[2]; 4000 ppm L-arginine, Day 14",53.71
same,residual sodium nitrite,"[2]; 4000 ppm L-arginine, Day 28",79.07
same,residual sodium nitrite,"[2]; 5000 ppm L-arginine, Day 1",73.95
same,residual sodium nitrite,"[2]; 5000 ppm L-arginine, Day 7",61.77
same,residual sodium nitrite,"[2]; 5000 ppm L-arginine, Day 14",52.91
same,residual sodium nitrite,"[2]; 5000 ppm L-arginine, Day 28",100.11
same,"Residual Nitrite, LSMean Conc × Temp","[3]; Phase I, with 547 ppm sodium erythorbate, 1000 ppm L-arginine, 132° F.",85.37 ppm
same,"Residual Nitrite, LSMean Conc × Temp","[3]; Phase I, with 547 ppm sodium erythorbate, 1000 ppm L-arginine, 158° F.",76.56 ppm
same,"Residual Nitrite, LSMean Conc × Temp","[3]; Phase I, with 547 ppm sodium erythorbate, 1000 ppm L-arginine, 165° F.",65.51 ppm
same,"Residual Nitrite, LSMean Conc × Temp","[3]; Phase I, with 547 ppm sodium erythorbate, 2000 ppm L-arginine, 132° F.",82.58 ppm
same,"Residual Nitrite, LSMean Conc × Temp","[3]; Phase I, with 547 ppm sodium erythorbate, 2000 ppm L-arginine, 158° F.",66.33 ppm
same,"Residual Nitrite, LSMean Conc × Temp","[3]; Phase I, with 547 ppm sodium erythorbate, 2000 ppm L-arginine, 165° F.",75.98 ppm
same,"Residual Nitrite, LSMean Conc × Temp","[3]; Phase I, with 547 ppm sodium erythorbate, 3000 ppm L-arginine, 132° F.",78.11 ppm
same,"Residual Nitrite, LSMean Conc × Temp","[3]; Phase I, with 547 ppm sodium erythorbate, 3000 ppm L-arginine, 158° F.",84.73 ppm
same,"Residual Nitrite, LSMean Conc × Temp","[3]; Phase I, with 547 ppm sodium erythorbate, 3000 ppm L-arginine, 165° F.",57.42 ppm
same,"Residual Nitrite, LSMean Conc × Temp","[3]; Phase I, with 547 ppm sodium erythorbate, 4000 ppm L-arginine, 132° F.",72.90 ppm
same,"Residual Nitrite, LSMean Conc × Temp","[3]; Phase I, with 547 ppm sodium erythorbate, 4000 ppm L-arginine, 158° F.",83.35 ppm
same,"Residual Nitrite, LSMean Conc × Temp","[3]; Phase I, with 547 ppm sodium erythorbate, 4000 ppm L-arginine, 165° F.",52.11 ppm
same,"Residual Nitrite, LSMean Conc × Temp","[3]; Phase I, with 547 ppm sodium erythorbate, 5000 ppm L-arginine, 132° F.",57.48 ppm
same,"Residual Nitrite, LSMean Conc × Temp","[3]; Phase I, with 547 ppm sodium erythorbate, 5000 ppm L-arginine, 158° F.",48.52 ppm
same,"Residual Nitrite, LSMean Conc × Temp","[3]; Phase I, with 547 ppm sodium erythorbate, 5000 ppm L-arginine, 165° F.",38.80 ppm
same,"Residual Nitrite, LSMean main effect of Concentration","[3]; Phase II, without 547 ppm sodium erythorbate, 1000 ppm L-arginine",107.03^a ppm and 107.03 ppm
same,"Residual Nitrite, LSMean Conc × Temp","[3]; Phase II, without 547 ppm sodium erythorbate, 1000 ppm L-arginine, 132° F.",110.31^a ppm
same,"Residual Nitrite, LSMean Conc × Temp","[3]; Phase II, without 547 ppm sodium erythorbate, 1000 ppm L-arginine, 158° F.",117.12^a ppm
same,"Residual Nitrite, LSMean Conc × Temp","[3]; Phase II, without 547 ppm sodium erythorbate, 1000 ppm L-arginine, 165° F.",93.64^abc ppm
same,"Residual Nitrite, LSMean main effect of Concentration","[3]; Phase II, without 547 ppm sodium erythorbate, 2000 ppm L-arginine",105.44^a ppm and 105.44 ppm
same,"Residual Nitrite, LSMean Conc × Temp","[3]; Phase II, without 547 ppm sodium erythorbate, 2000 ppm L-arginine, 132° F.",101.25^abc ppm
same,"Residual Nitrite, LSMean Conc × Temp","[3]; Phase II, without 547 ppm sodium erythorbate, 2000 ppm L-arginine, 158° F.",96.50^abc ppm
same,"Residual Nitrite, LSMean Conc × Temp","[3]; Phase II, without 547 ppm sodium erythorbate, 2000 ppm L-arginine, 165° F.",118.58^a ppm
same,"Residual Nitrite, LSMean main effect of Concentration","[3]; Phase II, without 547 ppm sodium erythorbate, 3000 ppm L-arginine",102.80^a ppm and 102.80 ppm
same,"Residual Nitrite, LSMean Conc × Temp","[3]; Phase II, without 547 ppm sodium erythorbate, 3000 ppm L-arginine, 132° F.",107.12^ab ppm
same,"Residual Nitrite, LSMean Conc × Temp","[3]; Phase II, without 547 ppm sodium erythorbate, 3000 ppm L-arginine, 158° F.",111.73^a ppm
same,"Residual Nitrite, LSMean Conc × Temp","[3]; Phase II, without 547 ppm sodium erythorbate, 3000 ppm L-arginine, 165° F.",89.54^abc ppm
same,"Residual Nitrite, LSMean main effect of Concentration","[3]; Phase II, without 547 ppm sodium erythorbate, 4000 ppm L-arginine",90.87^a ppm and 90.87 ppm
same,"Residual Nitrite, LSMean Conc × Temp","[3]; Phase II, without 547 ppm sodium erythorbate, 4000 ppm L-arginine, 132° F.",101.77^ab ppm
same,"Residual Nitrite, LSMean Conc × Temp","[3]; Phase II, without 547 ppm sodium erythorbate, 4000 ppm L-arginine, 158° F.",113.35^a ppm
same,"Residual Nitrite, LSMean Conc × Temp","[3]; Phase II, without 547 ppm sodium erythorbate, 4000 ppm L-arginine, 165° F.",57.51^bcd ppm
same,"Residual Nitrite, LSMean main effect of Concentration","[3]; Phase II, without 547 ppm sodium erythorbate, 5000 ppm L-arginine",40.23^b ppm and 40.23 ppm
same,"Residual Nitrite, LSMean Conc × Temp","[3]; Phase II, without 547 ppm sodium erythorbate, 5000 ppm L-arginine, 132° F.",52.68^cd ppm
same,"Residual Nitrite, LSMean Conc × Temp","[3]; Phase II, without 547 ppm sodium erythorbate, 5000 ppm L-arginine, 158° F.",37.81^d ppm
same,"Residual Nitrite, LSMean Conc × Temp","[3]; Phase II, without 547 ppm sodium erythorbate, 5000 ppm L-arginine, 165° F.",30.19^d ppm
same,"Residual Nitrite, LSMean main effect of Temperature","[3]; Phase II, without 547 ppm sodium erythorbate, 132° F.",95.63^a ppm and 95.63 ppm
same,"Residual Nitrite, LSMean main effect of Temperature","[3]; Phase II, without 547 ppm sodium erythorbate, 158° F.",95.30^a ppm and 95.30 ppm
same,"Residual Nitrite, LSMean main effect of Temperature","[3]; Phase II, without 547 ppm sodium erythorbate, 165° F.",77.89^b ppm and 77.89 ppm
same,"Residual Nitrite, LSMean main effect of Concentration",[4]; 1000 ppm L-arginine,57.57 ppm
same,"Residual Nitrite, LSMean Conc × Temp","[4]; 1000 ppm L-arginine, 132° F.",39.35 ppm
same,"Residual Nitrite, LSMean Conc × Temp","[4]; 1000 ppm L-arginine, 158° F.",70.84 ppm
same,"Residual Nitrite, LSMean Conc × Temp","[4]; 1000 ppm L-arginine, 165° F.",62.52 ppm
same,"Residual Nitrite, LSMean main effect of Concentration",[4]; 2000 ppm L-arginine,68.91 ppm
same,"Residual Nitrite, LSMean Conc × Temp","[4]; 2000 ppm L-arginine, 132° F.",80.08 ppm
same,"Residual Nitrite, LSMean Conc × Temp","[4]; 2000 ppm L-arginine, 158° F.",66.63 ppm
same,"Residual Nitrite, LSMean Conc × Temp","[4]; 2000 ppm L-arginine, 165° F.",60.04 ppm
same,"Residual Nitrite, LSMean main effect of Concentration",[4]; 3000 ppm L-arginine,61.54 ppm
same,"Residual Nitrite, LSMean Conc × Temp","[4]; 3000 ppm L-arginine, 132° F.",60.68 ppm
same,"Residual Nitrite, LSMean Conc × Temp","[4]; 3000 ppm L-arginine, 158° F.",61.71 ppm
same,"Residual Nitrite, LSMean Conc × Temp","[4]; 3000 ppm L-arginine, 165° F.",62.24 ppm
